One data set deals with Nakaseomyces glabratus. The experiment in a line: In vitro potentiation of fluconazole antifungal activity in Candida glabrata YEM19 assessed as 8 fold reduction in fluconazole MIC. The format is functional.
A short description of data set [1]: Stability in Sprague-Dawley rat hepatocyte after 24 hrs. It counts as ADME, cell-based. As to conditions: hepatocytes, read-out: Stability.
In a further data set the test system is Serum. Kind of data set: Protein binding in Sprague-Dawley rat serum. The format is ADME, cell-free. Set-up: concentration or dose not given beside the values.
A further data set has as its system Candida albicans. Kind of data set: In vitro potentiation of fluconazole antifungal activity in Candida albicans YEM15 assessed as 8 fold reduction in fluconazole MIC. It counts as functional.
Data set [2] is described as follows: Total clearance in Sprague-Dawley rat at 5 mg/kg, iv. On the set-up: dose 5 mg/kg, route intravenous. As to conditions: in vivo. It counts as ADME, organism-based.

Structures are written as SMILES. Where only a bound is given, the exact number is not on record here.

As to `COc1ccc(N(C(=O)Nc2ccc(F)cc2)C(C)c2nc3ccccc3c(=O)n2N2CCN(C)CC2)c(OC)c1` (configuration not stated), the Activity in the data set on Nakaseomyces glabratus was 4 µg/mL; in the data set on Serum, 74%; in the data set on Candida albicans, 4 µg/mL. In data set [1], the remaining at 24 h is 18%.
On to `CNCC(=O)N1CCN(n2c(C(C)N(C(=O)Nc3ccc(F)cc3)c3ccc(OC)cc3OC)nc3ccccc3c2=O)CC1` (configuration not stated), for which the Activity was 4 µg/mL in the data set on Nakaseomyces glabratus and more than 32 µg/mL in the data set on Candida albicans.
Taken in the same sequence, the figures for `COc1ccc(N(C(=O)Nc2ccc(F)cc2)C(C)c2nc3ccccc3c(=O)n2N2CCN(C=O)CC2)c(OC)c1` (configuration not stated) were 4 µg/mL and 2 µg/mL.
On to `COc1ccc(N(C(=O)Nc2ccc(F)cc2)C(C)c2nc3ccccc3c(=O)n2N2CCN(C(=O)[C@H]3CCCN3)CC2)c(OC)c1` (some centres not stated), for which the Activity with Nakaseomyces glabratus is 2 µg/mL; in the data set with Candida albicans, more than 32 µg/mL.
In the case of `COC(=O)N[C@@H]1CCN(C(=O)N2CCN(n3c(C(C)N(C(=O)Nc4ccc(F)cc4)c4ccc(OC)cc4OC)nc4ccccc4c3=O)CC2)C1` (some centres not stated), the Activity in the data set with Nakaseomyces glabratus was 0.5 µg/mL; in the data set with Candida albicans, 0.25 µg/mL. For the same compound, the remaining at 24 h in data set [1] was 4%.
With `COc1ccc(N(C(=O)Nc2ccc(F)cc2)C(C)c2nc3ccccc3c(=O)n2N2CCNCC2)c(OC)c1` (configuration not stated), the values for the Activity in the data set with Nakaseomyces glabratus and with Candida albicans were 32 µg/mL and more than 32 µg/mL, respectively.
Taken in the same sequence, the figures for `COc1ccc(N(C(=O)Nc2ccc(F)cc2)C(C)c2nc3ccccc3c(=O)n2N2CCCCC2)c(OC)c1` (configuration not stated) were more than 32 µg/mL and more than 32 µg/mL.
For `COC(=O)NCC(=O)N1CCN(n2c(C(C)N(C(=O)Nc3ccc(F)cc3)c3ccc(OC)cc3OC)nc3ccccc3c2=O)CC1` (configuration not stated), in that order: 2 µg/mL and more than 32 µg/mL.
Turning to `COC(=O)N[C@@H](C)C(=O)N1CCN(n2c([C@H](C)N(C(=O)Nc3ccc(F)cc3)c3ccc(OC)cc3OC)nc3cc(F)ccc3c2=O)CC1`, the Activity in the data set with Nakaseomyces glabratus came to 0.0625 µg/mL; in the data set on Serum, 87%; in the data set with Candida albicans, 0.5 µg/mL. Also, the clearance in data set [2] is 125 mL/min/kg.
Regarding `COc1ccc(N(C(=O)Nc2ccc(F)cc2)C(C)c2nc3ccccc3c(=O)n2N2CCN(C(=O)C3CCCC3)CC2)c(OC)c1` (configuration not stated), the Activity with Nakaseomyces glabratus amounted to 0.125 µg/mL; with Candida albicans, 0.25 µg/mL.
For `COC(=O)N[C@H](C)C(=O)N1CCN(n2c(C(C)N(C(=O)Nc3ccc(F)cc3)c3ccc(OC)cc3OC)nc3ccccc3c2=O)CC1` (some centres not stated), the Activity in the data set on Nakaseomyces glabratus came to 0.5 µg/mL; in the data set on Serum, 82%; in the data set on Candida albicans it was 4 µg/mL. In addition, the remaining at 24 h in data set [1] was 7%.
As to `COc1ccc(N(C(=O)Nc2cccc(Cl)c2)C(C)c2nc3ccccc3c(=O)n2N2CCN(C)CC2)c(OC)c1` (configuration not stated), the values for the Activity in the data set with Nakaseomyces glabratus, in the data set with Serum and with Candida albicans were 4 µg/mL, 98% and 1 µg/mL, respectively. The compound also had a clearance in data set [2] of 83.3 mL/min/kg.
Regarding `COc1ccc(N(C(=O)Nc2ccc(F)cc2)C(C)c2nc3ccccc3c(=O)n2N2CCN(C(=O)[C@@H]3CCCN3)CC2)c(OC)c1` (some centres not stated), the Activity in the data set on Nakaseomyces glabratus is 4 µg/mL; in the data set on Serum, 77%; with Candida albicans it was more than 32 µg/mL. Further, the remaining at 24 h in data set [1] came to 77%.
Take `COc1ccc(N(C(=O)Nc2ccc(F)cc2)C(C)c2nc3ccccc3c(=O)n2N2CCN(C(=O)C3CCCO3)CC2)c(OC)c1` (configuration not stated): the Activity in the data set with Nakaseomyces glabratus was determined as 0.125 µg/mL; with Candida albicans, 0.5 µg/mL.
`COc1ccc(N(C(=O)Nc2ccc(F)cc2)C(C)c2nc3ccccc3c(=O)n2N2CCN(C(=O)[C@@H]3CCCN3C)CC2)c(OC)c1` (some centres not stated): the Activity in the data set on Nakaseomyces glabratus is 2 µg/mL; in the data set on Candida albicans, 32 µg/mL.
In the case of `COc1ccc(N(C(=O)Nc2ccc(F)cc2)C(C)c2nc3ccccc3c(=O)n2N2CCN(C(=O)N3CCCC3)CC2)c(OC)c1` (configuration not stated), the results for the Activity with Nakaseomyces glabratus and in the data set on Candida albicans were less than 0.03 µg/mL and 0.0625 µg/mL, respectively. In data set [1], the remaining at 24 h was determined as 0%.
In the case of `COC(=O)N(C)[C@@H](C)C(=O)N1CCN(n2c(C(C)N(C(=O)Nc3ccc(F)cc3)c3ccc(OC)cc3OC)nc3ccccc3c2=O)CC1` (some centres not stated), the Activity in the data set with Nakaseomyces glabratus and with Candida albicans was 0.5 µg/mL each time.
`COC(=O)N[C@@H](C)C(=O)N1CCN(n2c(C(C)N(C(=O)Nc3ccc(F)cc3)c3ccc(OC)cc3OC)nc3ccccc3c2=O)CC1` (some centres not stated): the Activity was 0.25 µg/mL in the data set on Nakaseomyces glabratus, 82% in the data set with Serum and 2 µg/mL in the data set with Candida albicans. Further, the remaining at 24 h in data set [1] is 39%.
As to `COC(=O)N[C@@H](CO)C(=O)N1CCN(n2c(C(C)N(C(=O)Nc3ccc(F)cc3)c3ccc(OC)cc3OC)nc3ccccc3c2=O)CC1` (some centres not stated), the Activity was determined as 8 µg/mL in the data set with Nakaseomyces glabratus and 32 µg/mL with Candida albicans.
For `COC(=O)N[C@H](C(=O)N1CCN(n2c(C(C)N(C(=O)Nc3ccc(F)cc3)c3ccc(OC)cc3OC)nc3ccccc3c2=O)CC1)[C@H](C)O` (some centres not stated), in that order: 2 µg/mL and 2 µg/mL.
Taken in the same sequence, the figures for `COc1ccc(N(C(=O)Nc2ccc(F)cc2)C(C)c2nc3ccccc3c(=O)n2N2CCN(C[C@@H]3CCCN3)CC2)c(OC)c1` (some centres not stated) were 2 µg/mL and 32 µg/mL.
Turning to `COC(=O)N[C@H]1CCN(C(=O)N2CCN(n3c(C(C)N(C(=O)Nc4ccc(F)cc4)c4ccc(OC)cc4OC)nc4ccccc4c3=O)CC2)C1` (some centres not stated), the Activity in the data set with Nakaseomyces glabratus turned out to be 0.25 µg/mL; in the data set on Candida albicans it was 4 µg/mL. Further, the remaining at 24 h in data set [1] came to 23%.
`CCOC(=O)N1CCN(n2c(C(C)N(C(=O)Nc3ccc(F)cc3)c3ccc(OC)cc3OC)nc3ccccc3c2=O)CC1` (configuration not stated): the Activity in the data set on Nakaseomyces glabratus worked out at 0.5 µg/mL; in the data set with Candida albicans, 0.25 µg/mL.
For `CCNC(=O)N1CCN(n2c(C(C)N(C(=O)Nc3ccc(F)cc3)c3ccc(OC)cc3OC)nc3ccccc3c2=O)CC1` (configuration not stated), in that order: 1 µg/mL and 1 µg/mL.
For `COc1ccc(N(C(=O)Nc2ccc(F)cc2)C(C)c2nc3ccccc3c(=O)n2N2CCN(C(N)=O)CC2)c(OC)c1` (configuration not stated), in that order: 16 µg/mL and 8 µg/mL.
For `COc1ccc(N(C(=O)Nc2ccc(F)cc2)C(C)c2nc3ccccc3c(=O)n2N2CCN(C(=O)[C@@H]3CCCN3C3CC3)CC2)c(OC)c1` (some centres not stated), in that order: 0.25 µg/mL and 1 µg/mL.
As to `COc1ccc(N(C(=O)Nc2ccc(F)cc2)C(C)c2nc3ccccc3c(=O)n2N2CCN(C(=O)[C@H](C)N3CCCC3)CC2)c(OC)c1` (some centres not stated), the figures for the Activity in the data set on Nakaseomyces glabratus and with Candida albicans were 0.25 µg/mL and 8 µg/mL, respectively.
Taken in the same sequence, the figures for `COc1ccc(N(C(=O)Nc2ccc(F)cc2)C(C)c2nc3ccccc3c(=O)n2N2CCN(C(=O)CN3CCCC3)CC2)c(OC)c1` (configuration not stated) were 1 µg/mL and 4 µg/mL.
In the case of `COc1ccc(N(C(=O)Nc2ccc(F)cc2)C(C)c2nc3ccccc3c(=O)n2N2CCN(C(=O)C[C@@H]3CCCN3)CC2)c(OC)c1` (some centres not stated), the results for the Activity in the data set on Nakaseomyces glabratus and with Candida albicans were 0.5 µg/mL and more than 32 µg/mL, respectively.
For `COC(=O)N[C@H](C(=O)N1CCN(n2c(C(C)N(C(=O)Nc3ccc(F)cc3)c3ccc(OC)cc3OC)nc3ccccc3c2=O)CC1)C(C)C` (some centres not stated), in that order: 2 µg/mL and 1 µg/mL.
Taken in the same sequence, the figures for `COc1ccc(N(C(=O)Nc2ccc(F)cc2)C(C)c2nc3ccccc3c(=O)n2N2CCN(C(=O)[C@H](C)N)CC2)c(OC)c1` (some centres not stated) were 4 µg/mL and more than 32 µg/mL.

Source of the values: ChEMBL document CHEMBL1144636, “Quinazolinone fungal efflux pump inhibitors. Part 3: (N-methyl)piperazine variants and pharmacokinetic optimization” (Bioorg Med Chem Lett, 2007).
